# Where two headings read alike, the source gives them in different places.
# How the values were obtained:
# [1] = tested on: Carrageenan-induced paw edema in the rat; test: Carrageenan-induced paw edema in rat; format: in vivo, rat (female albino, Sim:(SD)fbr); conditions: one hour prior to carrageenan
# Description: 1. Carrageenan-induced paw edema in the rat. […] A solution of carrageenan injected into the foot pad of a rat causes reddening, swelling and pain which is maximal three to six hours after administration and then resolves. […] Immuno-suppressive agents are not effective under these circumstances.
# Carrageenan-induced Paw Edema in Rat
# Method: Test for Determining Anti-Inflammatory Activity Utilizing Carrageenan-Induced Paw Inflammation in Rats
# The method used was basically that of Winter, et al. (See, Winter, C.A., Risley, E.A., and Nuss, G.W.: Carrageenan-induced edema in hind paw of the rat as an assay for anti-inflammatory drugs, Proc. Soc. Exp. Biol. Med. 111:544-547, 1962.) Female albino rats (Sim: (SD)fbr) weighing 80-90 g received the test material p.o. in 1 ml aqueous vehicle at hour zero (0 hr). One hour later (hr 1), 0.05 ml of a 1% solution (in aqueous 0.9% NaCl) or carrageenan was injected into the right hind paw to inflame the paw. The rats were sacrificed at hour 4, at which time both hind paws were removed and individually weighed. The percent increase in the weight of the inflamed paw over that of the opposite non-inflamed paw was calculated.
# [2] = Ability to cause gastro-intestinal erosion in rats; set-up: species or system rat (male Lai:COX (SD)); conditions: in vivo, rat
# Description: Method: Test for Ability to Cause Gastro-Intestinal Erosion in Rats
# Male Lai: COX (SD) rats weighing 200-250 g were acclimated for one week under standard laboratory conditions. Each animal was individually identified and body weights were determined on the first day of the test and again at autopsy. The test materials, suspended in aqueous carboxymethyl cellulose vehicle, were administered orally once daily in a volume of 1.0 ml per 100 g body weight for seven consecutive days. Food was withdrawn from the animals following the last dose and the animals were sacrificed 24 hours later. At necropsy, the stomach and intestines were removed and observed for lesions. […] The highest test dose level producing no detectable lesions is reported.
# [3] = tested on: Adjuvant-induced Arthritis in Rat; test: Adjuvant-induced Arthritis in rat; format: in vivo, rat (female Hla:(SD) BR); conditions: oral
# [4] = tested on: Adjuvant-induced Arthritis in Rat; conditions: daily administration of appropriate doses, background; cited from earlier work
# [5] = tested on: Experimental Allergic Encephalomyelitis in Rat; conditions: daily treatment, background; cited from earlier work
# [6] = tested on: Experimental Allergic Encephalomyelitis in Rat; test: Experimental Allergic Encephalomyelitis in rat; format: in vivo, rat (female LEW/Crl BR); conditions: for Body Wt.: day 17
# Description: 3. Experimental allergic encephalomyelitis in the rat. […] A mixture of syngeneic spinal cord homogenate in Freund's Complete Adjuvant injected subcutaneously into the rat induces an […] response directed against the myelin covering the nerves of the central nervous system. […] These symptoms result from attack of immune cells on the nerves with subsequent destruction and loss of ability to transmit the nervous impulses necessary for controlling muscle function. […] This is consistent with the general immuno-suppressive effects of this drug. Corticosteroid treatment also prevents the appearance of paralytic symptoms, but the dose of corticosteroid required is such that the corticosteroid itself causes weight loss greater than that produced by the disease alone. In contrast to their action in Adjuvant-inducted Arthritis in the rat, aspirin-like drugs are completely ineffective in preventing the symptoms and weight loss of experimental allergic encephalomyelitis.
# Experimental Allergic Encephalomyelitis in Rat
# Method: Test for Inhibition of Experimental Allergic Encephalomyelitis Induced in Rats
# Female LEW/Crl BR rats weighing 125-135 g were randomly assigned to treatment groups of ten animals. Experimental allergic encephalomyelitis was induced by injecting into the right hind paw of each animal 0.1 ml of an emulsion containing 15 mg (wet weight) of syngeneic spinal cord tissue, 0.06 ml of Freund's Incomplete Adjuvant (Difco), 0.04 ml of sterile 0.9% saline and 0.2 mg of heat-killed, dried Mycobacterium butyricum (Difco). Test materials prepared as solutions or suspensions in aqueous carboxymethyl cellulose vehicle were administered orally each day for 16 days, starting on the day of injection. Animals were individually identified and weighed on day one, and again on day 17.
# [7] = tested on: Gastro-Intestinal Erosion in Rats; conditions: background, in words; cited from earlier work
# [8] = oral dose 100 mg/kg, * = not significant
# [9] = oral once daily for seven days, read-out: Minimum Dose causing G.I. Erosions
# [10] = oral dose 10 mg/kg, * = not significant
# [11] = oral dose 30 mg/kg, * = not significant
# [12] = oral 10 mg/kg daily for 16 days
# [13] = oral 50 mg/kg daily for 16 days
structure (smiles),measurement,setting,value
Cc1cccc(NC(=O)OCC(C)C)c1C(=O)O [2-isobutoxycarbonylamino-6-methylbenzoic acid],Inhibition of Hind Paw Weight Increase,[1]; [8],23
same,NOAEL at 168 h,[2]; [9],> 100 mg/kg/day
same,Inhibition of Adjuvant Arthritis,"[3]; at 50 mg/kg, n.s.",0%
O=P1(N(CCCl)CCCl)NCCCO1 (stereo not drawn) [cyclophosphamide],control of manifestations of Adjuvant-induced arthritis,[4],effectively controlled
same,effect on weight loss and paralysis in experimental allergic encephalomyelitis,[5],gives protection from the weight loss and paralysis
CCOC(=O)Nc1cccc(C)c1C(=O)O [2-Ethoxycarbonylamino-6-methylbenzoic acid],Inhibition of Hind Paw Weight Increase,[1]; [10],9
same,Inhibition of Hind Paw Weight Increase,[1]; [11],13
same,Inhibition of Hind Paw Weight Increase,[1]; [8],12
same,NOAEL at 168 h,[2]; [9],> 100 mg/kg/day
same,Body Wt.,[6]; oral 5 mg/kg daily for 16 days,164 ± 4.9 gm
same,Body Wt.,[6]; [12],155 ± 3.7 gm
same,Body Wt.,[6]; oral 25 mg/kg daily for 16 days,154 ± 6.0 gm
same,Inhibition of Adjuvant Arthritis,"[3]; at 50 mg/kg, n.s.",30%
"O=C(Nc1ccccc1C(=O)O)OCc1ccccc1 [2-Benzyloxycarbonyl-aminobenzoic acid, 2-benzyloxycarbonylaminobenzoic acid]",Body Wt.,[6]; oral 2 mg/kg daily for 16 days,131 ± 3.6 gm
same,Body Wt.,[6]; [12],141 ± 6.3 gm
"Cc1cccc(N)c1C(=O)O [2-Amino-6-methylbenzoic acid, 2-amino-6-methyl-benzoic acid, reference compound]",Inhibition of Hind Paw Weight Increase,[1]; [10],5
same,Inhibition of Hind Paw Weight Increase,[1]; [11],7
same,Inhibition of Hind Paw Weight Increase,[1]; [8],0
same,NOAEL at 168 h,[2]; po,> 250 mg/kg/day
same,Body Wt.,[6]; oral 2 mg/kg daily for 16 days,153 ± 5.2 gm
same,Body Wt.,[6]; [12],145 ± 4.1 gm
same,Body Wt.,[6]; [13],141 ± 4.0 gm
same,Inhibition of Adjuvant Arthritis,"[3]; at 50 mg/kg, n.s.",0%
"O=C(O)c1ccccc1Nc1cccc(C(F)(F)F)c1 [Flufenamic acid, reference compound]",Inhibition of Hind Paw Weight Increase,[1]; [10],35
same,Inhibition of Hind Paw Weight Increase,[1]; [8],52
same,gastro-intestinal effects associated with aspirin-like drugs,[7],gastro-intestinal (ulcerogenic) effects
same,NOAEL at 168 h,[2]; po,35 mg/kg/day
same,Body Wt.,[6]; oral 30 mg/kg daily for 16 days,135 ± 2.4 gm
same,Body Wt.,[6]; oral 100 mg/kg daily for 16 days,128 ± 2.1 gm
same,Inhibition of Adjuvant Arthritis,[3]; at 35 mg/kg,80%
"CCOC(=O)Nc1cc(OC)c(OC)cc1C(=O)O [2-ethoxycarbonylamino-4,5-dimethoxybenzoic acid]",NOAEL at 168 h,[2]; [9],> 100 mg/kg/day
same,Body Wt.,[6]; oral 2 mg/kg daily for 16 days,157 ± 4.0 gm
same,Body Wt.,[6]; [12],137 ± 5.7 gm
same,Body Wt.,[6]; [13],154 ± 5.8 gm
same,Inhibition of Adjuvant Arthritis,"[3]; at 50 mg/kg, n.s.",0%
"C[C@@H]1C[C@H]2[C@@H]3CCC4=CC(=O)C=C[C@]4(C)[C@@]3(F)[C@@H](O)C[C@]2(C)[C@@]1(O)C(=O)CO [Dexamethasone, reference compound]",Inhibition of Hind Paw Weight Increase,[1]; oral dose 0.1 mg/kg,71
same,Body Wt.,[6]; oral 0.25 mg/kg daily for 16 days,130 ± 0.4 gm
same,% Animals With Paralysis,"[6]; oral 0.25 mg/kg daily for 16 days, observed days 12-17",0%
"COc1cc(NC(=O)OCc2ccccc2)c(C(=O)O)cc1OC [2-benzyloxycarbonylamino-4,5-dimethoxybenzoic acid]",Body Wt.,[6]; oral 2 mg/kg daily for 16 days,142 ± 5.3 gm
same,Body Wt.,[6]; [12],144 ± 3.9 gm
"CCOC(=O)Nc1ccccc1C(=O)O [2-Ethoxycarbonyl-aminobenzoic acid, 2-ethoxycarbonylaminobenzoic acid]",Body Wt.,[6]; oral 2 mg/kg daily for 16 days,150 ± 4.2 gm
same,Body Wt.,[6]; [12],162 ± 3.4 gm
same,Body Wt.,[6]; [13],151 ± 4.4 gm
Cc1cccc(NC(=O)OCc2ccccc2)c1C(=O)O [2-benzyloxycarbonylamino-6-methylbenzoic acid],Inhibition of Hind Paw Weight Increase,[1]; [8],10
same,Body Wt.,[6]; [12],146 ± 3.6 gm
